The SangsterLogP compilation

`O=C(O)Cc1cc(O)ccc1O` and `O=C(O)Cc1ccc(O)c(O)c1` are within 0.2 log units of each other in logP: 0.86 for the first, 0.98 for the second.

Compared with `COc1cc(CC(=O)O)ccc1O`, `COc1cc(C(O)C(=O)O)ccc1O` (centres undefined) is lower in logP: 1.18 for the first, 0.84 for the second.

Compared with `O=C(O)c1ccc(O)c(O)c1`, `O=C(O)c1cc(O)c(O)c(O)c1` is lower in logP: 0.99 for the first, 0.72 for the second.

First: O=C(O)Cn1ccc2cc(O)ccc21
Second: O=C(O)Cn1ccc2ccccc21
The logP of the first is lower: 1.17 for the first, 1.92 for the second.

Going from `COc1cccc(/C=C/C(=O)O)c1` to `COc1cccc(C(O)C(=O)O)c1` (centres undefined), the logP falls from 2.37 to 1.33.

Going from `O=C(O)c1cc2ccccc2cc1O` to `O=C(O)Cc1ccccc1O`, the logP falls from 3.05 to 1.47.

Compared with `O=C(O)C1CCCCC1`, `O=C(O)c1cc(O)cc(O)c1` is lower in logP: 1.96 for the first, 0.94 for the second.

Going from `CC(C)CCOC(=O)c1ccccc1` to `CCCCOC(=O)c1ccccc1`, the logP falls from 4.1 to 3.68.

First: O=C(O)Cc1ccc(O)cc1
Second: O=C(O)CCn1ccc2ccccc21
The logP of the first is lower: 1.26 for the first, 2.2 for the second.

Molecule `CCC(=O)c1ccccc1` has a logP of 2.3.
